Holding throughout (assay type): functional, cell-based
The subject of experiment [1] is B16. Kind of experiment: Upregulation of MMP-9 mRNA expression in mouse B16 cells at 25 uM after 24 hrs by qRT-PCR analysis.
For experiment [2], the system named is B16. Nature of the experiment: Suppression of MMP-9 mRNA expression in mouse B16 cells at 1 uM after 24 hrs by qRT-PCR analysis. Background: Quantitative PCR measures a nucleic acid by following its amplification.
The subject of experiment [3] is B16. Nature of the experiment: Upregulation of MMP-9 mRNA expression in mouse B16 cells at 1 uM after 24 hrs by qRT-PCR analysis.

SMILES strings stand for the structures. Activity calls are given as the source filed them. The calls are words filed in the database; no cut-off is given here.

`CCCCCCCCCCCCCCCCCCOC(=O)CON(C)[C@@H]1O[C@H](CO)[C@@H](O[C@@H]2O[C@H](CO)[C@@H](O[C@H]3O[C@H](CO)[C@@H](O)[C@H](O)[C@H]3O)[C@H](O)[C@H]2O)[C@H](O)[C@H]1O`: the outcome in the experiment on B16 [1] was Active.

With `CCCCCCCCCCCCCCCCCCOC(=O)[C@H](COC(=O)CON(C)[C@@H]1O[C@H](CO)[C@@H](O[C@@H]2O[C@H](CO)[C@@H](O[C@H]3O[C@H](CO)[C@@H](O)[C@H](O)[C@H]3O)[C@H](O)[C@H]2O)[C@H](O)[C@H]1O)NC(=O)CCCCCCCCCCCCCCCCC`, the inhibition result in the experiment with B16 [2] was “inactive”.

With `CCCCCCCCCCCCCCCCCCOC(=O)CON(C)[C@@H]1O[C@H](CO)[C@H](O)[C@H](O)[C@H]1O`, the outcome in the experiment on B16 [1] was Active.

Take `CCCCCCCCCCCCCCCCCCOC(=O)[C@H](COC(=O)CON(C)[C@@H]1O[C@H](CO)[C@@H](O)[C@H](O)[C@H]1O)NC(=O)CCCCCCCCCCCCCCCCC`: the result in the experiment with B16 [1] was Active.

As to `CCCCCCCCCCCCCCCCCCOC(=O)[C@H](COC(=O)CON(C)[C@@H]1O[C@H](CO)[C@@H](O[C@@H]2O[C@H](CO)[C@H](O)[C@H](O)[C@H]2O)[C@H](O)[C@H]1O)NC(=O)CCCCCCCCCCCCCCCCC`, the outcome in the experiment with B16 [1] was Active.

For the molecule `CCCCCCCCCCCCC/C=C/[C@H](O)[C@@H](CO[C@@H]1O[C@H](CO)[C@@H](O[C@@H]2O[C@H](CO)[C@H](O)[C@H](O[C@]3(C(=O)O)C[C@H](O)[C@@H](NC(C)=O)[C@H]([C@H](O)[C@H](O)CO)O3)[C@H]2O)[C@H](O)[C@H]1O)NC(=O)CCCCCCCCCCCCCCCCC`, in the experiment on B16 [1], the outcome was Active.

Turning to `CCCCCCCCCCCCCCCCCCOC(=O)[C@H](COC(=O)CON(C)[C@@H]1O[C@H](CO)[C@@H](O[C@@H]2O[C@H](CO)[C@H](O)[C@H](O[C@]3(C(=O)O)C[C@H](O)[C@@H](NC(C)=O)[C@H]([C@H](O)[C@H](O)CO)O3)[C@H]2O)[C@H](O)[C@H]1O)NC(=O)CCCCCCCCCCCCCCCCC`, the result in the experiment with B16 [1] was Active.

As for `CCCCCCCCCCCCCCCCCCOC(=O)CON(C)[C@@H]1O[C@H](CO)[C@@H](O[C@@H]2O[C@H](CO)[C@H](O)[C@H](O[C@]3(C(=O)O)C[C@H](O)[C@@H](NC(C)=O)[C@H]([C@H](O)[C@H](O)CO)O3)[C@H]2O)[C@H](O)[C@H]1O`, the result with B16 [3] was Active.

On to `CCCCCCCCCCCCCCCCCCOC(=O)CON(C)[C@@H]1O[C@H](CO)[C@@H](O[C@@H]2O[C@H](CO)[C@H](O)[C@H](O)[C@H]2O)[C@H](O)[C@H]1O`, for which, in the experiment with B16 [1], the outcome was Active.

For the molecule `CCCCCCCCCCCCCCCCCCOC(=O)CON(C)[C@@H]1O[C@H](CO)[C@@H](O)[C@H](O)[C@H]1O`, the inhibition entry with B16 [2] is “inactive”.

In the case of `CCCCCCCCCCCCCCCCCCOC(=O)[C@H](COC(=O)CON(C)[C@@H]1O[C@H](CO)[C@H](O)[C@H](O)[C@H]1O)NC(=O)CCCCCCCCCCCCCCCCC`, the inhibition result with B16 [2] was “inactive”.
